“Also recorded” adds a separate entry of the source. Where a SMILES comes first, the peptide text is derived from it. The star is where a group is joined. Biotin = O=C1N[C@H]2[C@H](CS[C@H]2CCCCC(=O)*)N1
Legend:
[1] = tested on: BrdU-positive cells of the dentate gyrus of the hippocampus; experiment: Hippocampal neurogenesis by BrdU immunohistochemistry; type: in vivo; conditions: mice, four days of treatment, FIG. 5
Protocol: BrdU (5-bromo-2′-deoxyuridine) is a synthetic nucleoside analogous to thymidine. It is incorporated during DNA replication during phase S (chromosome duplication during interphase) of the cells in division. Injection of BrdU makes it possible to visualize the cells in division of the tissue to be analyzed by means of immunological labeling. In the present study, the hippocampal neurogenesis of the mice was evaluated after treatment with spadin or the different analogs.
After the behavioral tests, the mice were injected with BrdU at a final concentration of 120 mg/kg intraperitoneally, according to the modified protocol of Beauquis, J. et al. (Eur J Neurosci 23, 1539-1546, 2007). Four injections of 300 μl at 10 mg/ml, spaced two hours apart, were performed. 24 hours after the injections, the mice were anesthetized with pentobarbital (100 mg/kg) and then perfused intracardially. During the intracardiac perfusion, physiological saline was administered to remove all blood from the body of the mice, and then 4% paraformaldehyde (PFA) was perfused to fix the organs. Post-fixation in 4% PFA was also performed overnight. The brains of the mice were cut with a vibratome (Leica), which allowed 40 μm floating frontal sections to be obtained. The sections selected for the immunological reaction were those ranging from bregma 3.3 to 5.3. Eight sections were selected with a regular spacing, allowing the entire hippocampus to be covered while remaining homogeneous from one brain to another.
The immunological reaction was performed by incubating an anti-BrdU primary antibody (BD Pharmingen, 1/8000), with the brain sections, overnight at 4° C. The brain sections were then washed in PBS (Phosphate Buffered Saline) and incubated for two hours with the secondary antibody (biotinylated goat anti-mouse antibody, Vector laboratories, 1/400). […]
The sections were then mounted on slides and fixed with Entellan. BrdU-positive cells of the dentate gyrus of the hippocampus were counted in both hemispheres of each brain. […]

PSD-95 protein = experiment: Synaptogenesis: PSD-95 expression in cortical neurons by Western blot; type: cell-based, mouse C57BI/6J; conditions: 1 μM, 0-36 hours, normalized to ß-actin, FIG. 6
Protocol: Pregnant female C57BI/6J mice (20-25 g, Janvier Labs, St Berthevin, France) were anesthetized by inhalation of 2% isoflurane mixed with 30% oxygen and 70% nitrous oxide, and then sacrificed. The embryos (E14) were removed and the cerebral cortex was dissected in PBS containing 1% glucose. Neurons were prepared from cerebral cortex by mechanical dissociation, as described in Brewer and Torricelli, 2007 [26]. The dissociated neurons were distributed in poly-L-lysine treated plates and cultured for up to 10 days in neurobasal medium containing 2% B27 (Invitrogen, Fisher Scientific, Illkirch, France) and 50 μg/ml gentamycin (Sigma France), at 37° C. under 5% CO2. […]
Cortical neurons treated with peptides G/A-PE(22-28) and biotinylated G/A-PE(22-28) for different durations (0, 5, 8, 24 and 36 hours) were homogenized in Laemmli buffer and analyzed using 10% SDS-Page gels. […] The ß-actin contents were determined after extraction using a 1/5000 dilution of anti-β-actin antibodies (Santa Cruz mouse monoclonal antibody, dilution 1/5000). […] The proteins were detected with ECL Plus detection reagents (Amersham Biosciences) using the LAS-3000 imaging system (Fujifilm, Düsseldorf, Germany). The relative intensities of each labeled band were analyzed by densitometric scanning using ImageJ software (Wayne Rasband, National Institute of Health, Bethesda, Md., USA). […]

[2] = Learned helplessness test (LHT); type: in vivo; conditions: mice, bolus of 100 μL of a 10^-6 M solution 30 minutes before conditioning, FIG. 4
Protocol: Learned resignation or learned helplessness is a model based on the repeated administration of electric shocks to induce a resigned state in the animal.
The apparatus comprises two compartments separated by a sliding door and with a floor consisting of a metal grid through which the electrical pulses are administered. The learned helplessness protocol is divided into two stages, an animal conditioning stage and a test stage.
The conditioning was carried out over a period of four days during which time the mice received 360 non-avoidable electric shocks of 0.3 mA for one hour (the door, separating the two compartments, being closed). The shocks lasted for 2 seconds and an interval of 8 seconds was respected between each shock. This conditioning step leads to a phenomenon of helplessness in animals.
On the day of the test, the mice were placed in the same compartments but with a possibility of escaping the shock. The test counted 30 trials. During the administration of the shock, the door separating the two compartments opened, allowing the animals to flee. When the animal changes compartment the test is finished and the shock stops. […] This test made it possible to record the escape latencies of the animals. The thirty tests were then grouped by 5 and the average escape time was calculated. […]

[3] = target: T1, TREK-1 channels expressed on the ßTC3 cells (Mus musculus, UniProt P97438); experiment: Whole-cell patch clamp, I=f(V), on ßTC3 cells activated with arachidonic acid; type: cell-based; conditions: previously activated with arachidonic acid, FIG. 7A
T1 construct: TREK-1 channels are present on the surface of beta-pancreatic cells such as beta-TC3 cells; endogenous in cells; host or cells: ßTC3 cells
T1 sequence (P97438 1-426): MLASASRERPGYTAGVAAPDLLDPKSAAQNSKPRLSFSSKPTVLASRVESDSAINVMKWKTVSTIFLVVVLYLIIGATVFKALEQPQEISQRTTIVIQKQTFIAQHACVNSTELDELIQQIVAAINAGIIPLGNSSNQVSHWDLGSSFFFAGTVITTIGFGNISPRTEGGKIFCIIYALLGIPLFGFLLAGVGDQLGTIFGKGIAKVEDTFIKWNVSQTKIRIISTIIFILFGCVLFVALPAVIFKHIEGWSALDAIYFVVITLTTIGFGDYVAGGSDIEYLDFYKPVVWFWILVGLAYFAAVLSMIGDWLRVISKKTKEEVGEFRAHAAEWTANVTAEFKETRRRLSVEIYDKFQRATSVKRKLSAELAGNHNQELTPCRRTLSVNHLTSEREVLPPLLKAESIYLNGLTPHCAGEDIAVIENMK
Protocol: (§1) All experiments measuring the effect of spadin analogs and spadin were performed on ßTC3 or LNCaP or HEK293 cells stably transfected with the TREK-1 channel, hTREK-1/HEK293. The hTREK-1/HEK293 cell line was prepared in the laboratory. These cells also express a reporter gene: E-Green Fluorescent Protein (EGFP) enabling their visualization.
The ßTC3 cells were cultured in RPMI 1640 medium supplemented with 2.5% FCS, 50 μM beta-mercaptoethanol, 10 mM HEPES, 1 mM sodium pyruvate, 50 μg/ml gentamycin and 1% of a streptomycin+penicillin mixture, at 37° C. in the presence of 5% CO2.
The LNCaP cells were cultured in DMEM medium (Gibco)/10% fetal calf serum (FCS, ICN)/1% streptomycin+penicillin mixture (Gibco)/1% glutamax (Gibco)/at 37° C. in the presence of 5% CO2. […] From day 2 to day 4, the cells were measured by electrophysiological methods.
(§2) All measurements were made at room temperature, i.e. at 21-22° C. The hTREK-1/HEK293 cells were identified by the fluorescence emitted by EGFP after excitation at 480 nm. […]
The cell culture medium was replaced with a solution 150 mM NaCl, 5 mM KCl, 3 mM MgCl2, 1 mM CaCl2, 10 mM HEPES/NaOH pH 7.4 containing 10 mM tetraethylammonium chloride, 3 mM 4-aminopyridine. […] The resting potential of the membrane of the measured cell was set at −80 mV. […]

[4] = target: T2, TREK-1 channels expressed on the LNCaP cells (Homo sapiens, UniProt O95069); experiment: Whole-cell patch clamp, I=f(V), on LNCaP cells activated with arachidonic acid; type: cell-based; conditions: previously activated with arachidonic acid, FIG. 7B
T2 construct: TREK-1 channels are also present on the surface of cancer cells such as LNCaP cells (prostate cancer); endogenous in cells; host or cells: LNCaP cells
T2 sequence (O95069 1-426): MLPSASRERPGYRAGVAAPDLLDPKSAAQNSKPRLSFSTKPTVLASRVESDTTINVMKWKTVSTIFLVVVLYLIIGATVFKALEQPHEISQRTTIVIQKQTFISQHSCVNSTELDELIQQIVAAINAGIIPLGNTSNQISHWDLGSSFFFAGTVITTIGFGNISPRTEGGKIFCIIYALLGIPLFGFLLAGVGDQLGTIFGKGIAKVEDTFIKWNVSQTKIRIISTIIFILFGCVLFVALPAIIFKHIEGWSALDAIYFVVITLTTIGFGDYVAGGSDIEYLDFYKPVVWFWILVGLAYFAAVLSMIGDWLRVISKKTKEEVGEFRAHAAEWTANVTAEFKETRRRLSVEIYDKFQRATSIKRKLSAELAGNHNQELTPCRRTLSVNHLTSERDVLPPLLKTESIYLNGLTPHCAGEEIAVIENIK
Protocol: as §1
The LNCaP cells were cultured in DMEM medium (Gibco)/10% fetal calf serum (FCS, ICN)/1% streptomycin+penicillin mixture (Gibco)/1% glutamax (Gibco)/at 37° C. in the presence of 5% CO2. At day 1, the hTREK-1/HEK293 or BTC3 or LNCaP cells were seeded at 20,000 cells per 35 mm diameter dish containing 2 ml of culture medium. From day 2 to day 4, the cells were measured by electrophysiological methods.
as §2
The cell culture medium was replaced with a solution 150 mM NaCl, 5 mM KCl, 3 mM MgCl2, 1 mM CaCl2, 10 mM HEPES/NaOH pH 7.4 containing 10 mM tetraethylammonium chloride, 3 mM 4-aminopyridine. […] The resting potential of the membrane of the measured cell was set at −80 mV.
The voltage variations were obtained either by continuous ramp (from −100 to +60 mV) or by a potential jump of 10 mV (from −100 to +60 mV, 1.5 seconds per jump). The data obtained were analyzed with the Pclamp software. […]

LNCaP cells = experiment: Growth of LNCaP cells by counting the cells in culture; type: cell-based; conditions: cell count after 24 or 48 h, FIG. 7C
TREK-1 channel = target: T3, TREK-1 channel (Homo sapiens, UniProt O95069); conditions: previously shown; cited from earlier work
T3 sequence (O95069 1-426): T2 sequence (O95069 1-426)

CC(C)C[C@H](NC(=O)CNC(=O)[C@H](Cc1c[nH]c2ccccc12)NC(=O)[C@H](CO)NC(=O)[C@@H](NC(=O)[C@H](C)NC(=O)CCCC[C@@H]1SC[C@@H]2NC(=O)N[C@@H]21)C(C)C)C(=O)N[C@@H](CCCNC(=N)N)C(=O)O [biotinylated G/A-PE(22-28)] (Biotin-AVSWGLR-OH; N-terminus and C-terminus assumed)
neurogenesis (BrdU-positive cells of the hippocampus) [1]: increase neurogenesis more strongly than peptide PE(22-28); also recorded: capable of inducing an increase in neurogenesis | PSD-95 synaptic protein expression (synaptogenesis) (PSD-95 protein): increased PSD-95 synaptic protein expression | escape latencies in the learned helplessness test [2]: capable of reducing the escape latencies

GVSWGLR (Peptide PE(22-28)) [base peptide derived from the propeptide, used for design of other peptides]
blocking of arachidonic acid (aa) activated TREK-1 / potassium currents on ßTC3 cells [3]: blocks arachidonic acid (aa) sensitive potassium currents | blocking of arachidonic acid (aa) activated TREK-1 / potassium currents on LNCaP cells [4]: blocks arachidonic acid (aa) sensitive potassium currents; also recorded: capable of blocking the TREK-1 channels | growth of LNCaP cells (LNCaP cells): inhibits their growth; also recorded: capable of inhibiting the cell growth

QDRLDAPPPPAAPLPRWSGPIGVSWGLRAAAAGGAFPRGGRWRR (Propeptide PE)
blocking of TREK-1 channel activity (TREK-1 channel): able to block the activity of the TREK-1 channel

— patent US11220527B2, “Peptides derived from the propeptide NTSR3 and their use in the treatment of depression” (CENTRE NATIONAL DE LA RECHERCHE SCIENTIFIQUE, priority 2016, dated 2022)
